We go through 51 compounds from PubChem BioAssay AID1996.

Structures are written as SMILES. ≈ marks a conversion by molar mass, not a printed value. Bounds are passed on as bounds.

The conditions of this data set: buffer; pH 7.4; 200.0 µM.
The term solubility (kinetic) denotes solubility judged after dilution from a stock solution rather than from solid. `O=C(O)CCC(NC(=S)Nc1ccccc1)C(=O)O` (stereo unspecified) registered a kinetic solubility above 42.3 µg/mL. The figure for `O=C(CS(=O)(=O)c1ccccc1)Nc1ccccn1` is above 41.4 µg/mL. The figure for `Cc1ccc(S(=O)(=O)CCC(=O)OCc2nnc(-c3ccccc3)o2)cc1` is above 58 µg/mL. `Cc1[nH]c2ccccc2c1C(=O)COC(=O)c1ccccc1O` had a solubility (kinetic) of 4.6 µg/mL (≈ 14.9 µM). As to `O=C(Cc1ccc(Cl)cc1)NCCc1cnc[nH]1`, the kinetic solubility is above 39.6 µg/mL.

Turning to `Cc1onc(-c2ccccc2)c1C(=O)N1CCN(c2ccccn2)CC1`, the solubility (kinetic) is above 52.3 µg/mL. The compound `COc1ccccc1C(=O)NCC1(c2ccccc2)CCCC1` had a solubility (kinetic) of 8.1 µg/mL (≈ 26.2 µM).

Regarding `CCC(=NC(C)c1ccccc1)c1c(O)[nH]c(=O)[nH]c1=O` (stereo unspecified), the kinetic solubility is above 43.1 µg/mL. The figure for `CCCCN(C)C(=O)c1cc2cc3ccc(OC)cc3nc2o1` is 14.5 µg/mL (≈ 46.4 µM). Compound `CCCCN(CCO)c1ncnc2sc(-c3ccccc3)cc12` returned a kinetic solubility below 0.2 µg/mL. Compound `O=C(COC(=O)c1cccs1)Nc1ccccc1Cl` showed a solubility (kinetic) of 2.3 µg/mL (≈ 7.78 µM). As for `CN1CCc2c(OCc3ccc(F)cc3)cccc2C1=O`, the kinetic solubility stood at 36.8 µg/mL (≈ 129 µM). `CCN(CC)C(=O)c1cc(Cl)ccn1` gave a solubility (kinetic) of 26.8 µg/mL (≈ 126 µM).

The compound `CCOc1ccc(C2C(C#N)=C(N)Oc3cc(C)[nH]c(=O)c32)cc1OC` (stereo unspecified) gave a solubility (kinetic) above 53 µg/mL. In turn, `Cc1cc(C(=O)OCC(=O)NC2CC2)c2ccccc2n1` gave a kinetic solubility above 42.6 µg/mL. As for `CCC(=O)NC(=S)Nc1ccc(NC(=O)c2cccnc2)cc1`, the figure is 13.1 µg/mL (≈ 39.9 µM); as for `Cc1ccc([N+](=O)[O-])cc1NC(=O)/C=C/C(=O)O`, above 37.5 µg/mL. `CCOC(=O)c1c(C)[n+]([O-])c2ccc3c(non3O)c12` returned a solubility (kinetic) of 8.7 µg/mL (≈ 31.4 µM).

In turn, `CS(=O)(=O)N1CCC(C(=O)Nc2ccc(Cl)cc2)CC1` gave a kinetic solubility of 13.4 µg/mL (≈ 42.3 µM). In the case of `CCS(=O)(=O)N1CCC(C(=O)Nc2cc([N+](=O)[O-])ccc2C)CC1`, the kinetic solubility is above 53.3 µg/mL.

Compound `CN(C)C(=O)c1ccc(Cl)cc1[N+](=O)[O-]` showed a solubility (kinetic) above 34.3 µg/mL.

In turn, `COC(=O)c1cccc(-n2c(CCC(=O)O)ccc2-c2cccs2)c1` had a kinetic solubility above 53.3 µg/mL. As to `O=C(CNC(=O)C1CCCCC1)NC1CCCCC1`, the kinetic solubility was above 40 µg/mL. The figure for `O=C(Nc1ccccc1)N1CCN(C(=O)Nc2ccccc2)CC1` is 3.1 µg/mL (≈ 9.56 µM); for `CC1CN(c2ccccc2)c2nc3c(c(=O)[nH]c(=O)n3C)n2C1` (stereo unspecified) it is above 46.7 µg/mL; for `CCc1ccc(NC(=S)N2CCN(C)CC2)cc1` it is above 39.5 µg/mL.

Turning to `CN(Cc1ccccc1)C(=O)COC(=O)CCC(=O)c1ccc(F)cc1`, the kinetic solubility was determined as 14.8 µg/mL (≈ 41.4 µM). The compound `C=CCn1cc(Cl)cc(C(=O)Nc2ccccc2)c1=O` gave a solubility (kinetic) of 6.9 µg/mL (≈ 23.9 µM). Against the preceding compound, the solubility kinetic is about 2.1-fold lower. As for `O=C(CCCc1nc2ccccc2s1)Nc1ccccc1`, the figure is 9.9 µg/mL (≈ 33.4 µM); as for `NS(=O)(=O)c1ccc(CCNC(=O)NC2CCCCC2)cc1`, above 48.8 µg/mL; as for `CCC(OC(=O)CN1C(=O)c2ccccc2C1=O)C(=O)NC1CCCC1` (stereo unspecified), 52.1 µg/mL (≈ 145 µM). As for `O=C(NN1CCOCC1)c1cc(Cl)ccc1Cl`, the figure is above 41.3 µg/mL; as for `Cc1ccccc1OCCn1cc(C(=O)O)c2ccccc21`, above 44.3 µg/mL; as for `CC(=O)Nc1cccc(NC(=S)Nc2cccc(Cl)c2C)c1`, 44.9 µg/mL (≈ 134 µM). The figure for `Cc1ccc(C(=O)Nc2ccc(N3CCOCC3)nc2N2CCOCC2)cc1` is 5.6 µg/mL (≈ 14.6 µM). On to `CC1(C)CC2(CCCN(C(=S)Nc3ccccc3)C2)CCO1` (stereo unspecified), for which the kinetic solubility came out at 46.4 µg/mL (≈ 146 µM). This solubility kinetic is about 8.3-fold higher than that of the compound before.

For the compound `COc1ccccc1NC(=O)c1cc2c(cc1Cl)N1CCCCCC1=NS2(=O)=O`, the kinetic solubility is 2.1 µg/mL (≈ 4.84 µM). Compound `Cc1nn(-c2cccc(C(=O)O)c2)c(C)c1[N+](=O)[O-]` had a solubility (kinetic) above 39.2 µg/mL. `CCN(C(=O)COC(=O)c1[nH]c(=O)[nH]c(=O)c1N)c1ccccc1` registered a solubility (kinetic) of 39.3 µg/mL (≈ 118 µM).

In the case of `O=C(Oc1c(-c2ccccc2)c(=O)n2c3c(cccc13)CC2)c1ccc(F)cc1`, the kinetic solubility is below 0.8 µg/mL.

`Nc1nc2ccc(NC(=O)c3ccco3)cc2s1` gave a solubility (kinetic) above 38.9 µg/mL. The compound `CCN(C(=O)CSc1nc2ccc(Cl)cc2[nH]1)C1CCS(=O)(=O)C1` (stereo unspecified) displayed a kinetic solubility above 58.2 µg/mL. On to `Cc1[nH]c2ccc(C(=O)N3CCN(Cc4ccccc4)CC3)cc2c1C`, for which the solubility (kinetic) is above 52.1 µg/mL.

`Cc1nc(C)c(-c2ccnc(/N=C/NO)n2)s1` returned a solubility (kinetic) of 34 µg/mL (≈ 136 µM).

As for `OCC1(Cc2ccccc2F)CCCN(CCc2ccccc2)C1` (stereo unspecified), the kinetic solubility was 40.7 µg/mL (≈ 124 µM). Take `CC(C)NC(=O)NNc1c(Cl)cncc1Cl`: the solubility (kinetic) is above 39.5 µg/mL. The figure for `O=C(Nc1ccc2c(c1)OCO2)N1CCCc2ccccc21` is above 44.4 µg/mL; for `CC(=O)N1CCN(S(=O)(=O)c2cccc(C(=O)NCc3ccc(F)cc3)c2)CC1` it is above 62.9 µg/mL; for `COC(=O)c1ccc(CN2CCN(CC(C)C)C(CCO)C2)cc1` (stereo unspecified) it is above 50.2 µg/mL.

As to `CCOc1ccc(NC(=S)NC(=O)Cc2ccccc2)cc1`, the solubility (kinetic) was 1.8 µg/mL (≈ 5.73 µM).

For `O=C(NC1CCN(Cc2ccc(Cl)c(Cl)c2)CC1)c1ccccc1`, the solubility (kinetic) turned out to be 1.9 µg/mL (≈ 5.23 µM).
